Data published in patent US20090325287A1, “Methods for Obtaining High Viable Cell Density in Mammalian Cell Culture” (priority 2008, published 2009).

Assays:
caspase 3 = test: Flow cytometry with FITC-labeled anti-caspase 3 antibody after staurosporine treatment; format: cell-based, Chinese Hamster; settings: staurosporine 2 μM, 16 h
Experimental: About 1×10^6 cells from exponential cultures were withdrawn from each shake flask into 24 well plates, incubated with Staurosporine (2 μM fc) for 16 h, harvested and washed once in PBS. The cells were then incubated with CytoPerm (Cat. No. 2075KK, BD BioScience) to fix and permeablized them. Following a PBS wash, cells were incubated with FITC-labeled anti-caspase3 (Cat. No. 68654, BD BioScience) antibody before subjecting them to analysis by flow cytometry.
Each apoptotic^R cell line was examined for caspase 3/7 activity by APO-ONE as this activity provides an indication of the degree of resistance of a cell line to apoptosis. Briefly, in this assay, the profluorescent substrate Z-DEVD-R110 is cleaved by caspase 3/7 in a dose-dependent manner. Exponential cultures of EA167 and EAX197 as well as the control cell line were treated with staurosporine for 16 hours to induce apoptosis, following which caspase 3/7 was measured. The caspase 3/7 activity in staurosporine treated control cells was arbitrarily set at 100%. […] As further evidence of the apoptotic^R nature of EA167 and EAX197, staurosporine-treated cultures of these two cell lines and the control cell line, were labeled with FITC-conjugated anti-caspase 3 antibody followed by analysis by flow cytometry. […] However, 91% of the control cell population was positive for caspase 3 following staurosporine treatment. In contrast, only 9% of the population derived from cell line EAX197 and 30% of that derived from cell line EA167 were positive for caspase 3, confirming the apoptotic^R phenotype of these two cell lines.

caspase 3/7 = test: Caspase 3/7 activity assay (APO-ONE) after staurosporine treatment; format: cell-based, Chinese Hamster; settings: staurosporine 2 μM, 16 h
Experimental: About 3×10^5 cells of each clone were seeded in one ml of growth medium in a 24-well plate. On day 4 (d4) post seeding, about 1×10^5 cells were transferred in triplicate to a 96 well plate. Staurosprine (2 μM fc) was added and the cells were incubated for 16 h before assaying for caspase3/7 activity by APO-ONE kit (BD Labs). The procedure was repeated on d10, except that Staurosporine was omitted. […] The apoptotic^R nature of the selected clones was confirmed by flow cytometry analysis (see below) and in some instances, by measuring the mitochondrial membrane potential.
Each apoptotic^R cell line was examined for caspase 3/7 activity by APO-ONE as this activity provides an indication of the degree of resistance of a cell line to apoptosis. Briefly, in this assay, the profluorescent substrate Z-DEVD-R110 is cleaved by caspase 3/7 in a dose-dependent manner. Exponential cultures of EA167 and EAX197 as well as the control cell line were treated with staurosporine for 16 hours to induce apoptosis, following which caspase 3/7 was measured. The caspase 3/7 activity in staurosporine treated control cells was arbitrarily set at 100%. […] As further evidence of the apoptotic^R nature of EA167 and EAX197, staurosporine-treated cultures of these two cell lines and the control cell line, were labeled with FITC-conjugated anti-caspase 3 antibody followed by analysis by flow cytometry. […]

With CN[C@@H]1C[C@H]2O[C@@](C)([C@@H]1OC)n1c3ccccc3c3c4c(c5c6ccccc6n2c5c31)C(=O)NC4 [staurosporine] the “cell population positive for caspase 3” value (caspase 3; EA167 cells) was 30%, the “cell population positive for caspase 3” value (caspase 3; EAX197 cells) was 9% and the “cell population positive for caspase 3” value (caspase 3; control cell line (CHOK1SV, C1013A)) was 91%. The “caspase 3/7 activity, of staurosporine treated control cells (set at 100%)” value (caspase 3/7; EA167 cells (CHOK1SV expressing E1B-19K + Aven)) was 30% and the “caspase 3/7 activity, of staurosporine treated control cells (set at 100%)” value (caspase 3/7; EAX197 cells (CHOK1SV expressing E1B-19K + Aven + XIAPΔ)) was 35%.
